Data: article PMC11693508, “Pharmacokinetics, bioavailability, and tissue distribution of MRTX1133 in rats using UHPLC-MS/MS” (Frontiers in Pharmacology, 2024)
Where two headings read alike, the source gives them in different places.

Assays:
[1] = test system: tumor models, including pancreatic and colorectal cancer; set-up: method as in Kataoka et al., 2023; Drosten and Barbacid, 2022; conditions: multiple in vivo tumor models, ref Kataoka et al., 2023, Drosten and Barbacid, 2022; cited from earlier work
[2] = Pharmacokinetic study in rats after intragastric and intravenous administration (plasma, UHPLC-MS/MS); format: in vivo, Sprague-Dawley rats; conditions: for Tmax: po, 25 mg/kg; for AUC(0-t): n = 10; for MRT last: read-out: MRT(0-t)
Description: The pharmacokinetic study was performed using oral solutions of MRTX1133 in 5% carboxymethyl-cellulose sodium (CMC-Na) at a concentration of 2.5 mg mL^-1 (the dose was 25 mg kg^-1 and 10 mL kg^-1). The intravenous solution was prepared at a concentration of 5 mg mL^-1 in polyethylene glycol 400 and dimethyl sulfoxide (8%). Twenty rats were randomly divided into two groups (ten rats each group), the rats in one group were given MRTX1133 by intravenous administration at 5 mg kg^-1 and the other group by intragastric administration at 25 mg kg^-1. Rats were slightly anesthetized with diethyl ether, blood samples were collected (approximately 150 µL) from the suborbital vein, and placed into heparinized tubes at 0.17 h, 0.33 h, 0.5h, 0.75 h, 1 h, 1.5 h, 2 h, 3 h, 4 h, 6 h, 8 h, 10 h, and 24 h after treatment. The rats were treated with saline at the same volume by gavage and used as control. Blood samples were centrifuged at 20,800 g for 10 min (at 4°C) and stored at - 80°C.
The DAS 3.2 software package (edited by the Chinese Mathematical Pharmacology Society) was used for the pharmacokinetic data analysis and the non-compartmental model was applied. The oral bioavailability (F) of MRTX1133 was measured by comparing each area under the curve (AUC) 0-t value after intragastric (i.g.) and intravenous (i.v.) administration according to the equation: F = (AUC i. g./Dose i. g.)/(AUC i. v./Dose i. v.).

[3] = Stability of MRTX1133 in rat plasma and tissue homogenates under different storage conditions; format: physicochemical; conditions: for Post-processing stability Accuracy / Short-term stability Accuracy / −80°C for 14 days Accuracy / Freeze-thaw stability Accuracy: n = 6; for −80°C for 14 days Accuracy: long-term; for Freeze-thaw stability Accuracy: three freeze-thaw cycles −20°C to 25°C
Description: The stability of MRTX1133 was determined by analyzing LQ, MQ, and HQ samples under different storage conditions, which included three freeze-thaw stability (from −20°C to 25°C), long-term stability (−80°C for 14 days), short-term stability (25°C for 6 h), and post-processing stability (4°C for 24 h). The samples concentrations were compared with the freshly prepared QC samples and were considered stable if the accuracy were 85%–115% and RSD were ±15%.

[4] = set-up: method as in Wang et al. (2022); conditions: CD-1 mice, intraperitoneal 30 mg/kg, ref Wang et al. (2022), cited from earlier work
[5] = Excretion in urine and feces of rats after intravenous administration; format: in vivo, Sprague-Dawley rats; conditions: rat, intravenous 5 mg/kg; for excretion through the kidney as prototype drug (urine): mean ± SD, n = 5
Description: The distribution of MRTX1133 in the tissues was performed using 25 rats with a single intravenous administration of MRTX1133 at 5 mg kg^-1. The blood samples were collected from abdominal aorta at 0.5 h, 1 h, 2 h, 6 h, and 24 h (five rats at each time point), then the organs such as the heart, liver, spleen, lung, kidney, intestine, and pancreas were immediately collected. The organs were washed with cold physiological saline (4°C), they were weighed and homogenized in cold saline solution (1:3, w/v). The homogenized samples were treated according to the method described in the sample preparation section. The excretion of MRTX1133 in the urine was also investigated by placing the rats in metabolic cages after intravenous administration of MRTX1133 at 5 mg kg^-1 (one rat in each cage), the urine and feces were collected at 2 h, 6 h and 24 h after administration (five rats at each time point), and the content of MRTX1133 in urine and feces was detected by the LC-MS method.

[6] = test system: KRAS (G12D); set-up: method as in Wang et al., 2022; conditions: in vitro in cell culture; ref Wang et al., 2022; cited from earlier work
[7] = Sprague-Dawley, rat plasma, intravenous 5 mg/kg
[8] = Sprague-Dawley, rat plasma, oral 25 mg/kg
[9] = rat intestine homogenate, 4.22 ng/mL
[10] = rat intestine homogenate, 21.12 ng/mL
[11] = rat kidney homogenate, 21.12 ng/mL
[12] = rat kidney homogenate, 211.20 ng/mL
[13] = rat kidney homogenate, 1,056.00 ng/mL
[14] = rat liver homogenate, 21.12 ng/mL
[15] = rat liver homogenate, 211.20 ng/mL
[16] = rat liver homogenate, 2,112.00 ng/mL

- bioavailability ([2]; Sprague-Dawley, plasma, oral, rat, AUC(0-t) i.g. 25 mg/kg vs i.v. 5 mg/kg, read-out: F (oral bioavailability)): 2.92%
- CL/F ([2]; Sprague-Dawley, plasma, rat, oral 25 mg/kg, read-out: CL/F (converted)): 199 L/h/kg
- Tmax ([2]; Sprague-Dawley, rat, plasma, rat plasma, oral 25 mg/kg, read-out: Tmax): 0.6 ± 0.13 h
- Tmax ([2]; Sprague-Dawley, rat, plasma, rat plasma, oral 25 mg/kg, read-out: time of peak plasma concentration (converted)): 0.75 h
- half-life [2, 7]: 2.88 ± 1.08 h
- AUC(0-t) [2, 7]: 928 ± 192 ng·h/mL
- MRT last [2, 7]: 1.34 ± 0.6 h
- Cmax [2, 8]: 130 ± 25.2 ng/mL
- half-life [2, 8]: 1.12 ± 0.46 h
- MRT last [2, 8]: 1.25 ± 0.18 h
- AUC(0-t) ([2]; Sprague-Dawley, rat plasma, oral (intragastric) 25 mg/kg): 136 ± 46.5 ng·h/mL
- plasma concentration 8 h after intravenous administration ([2]; rat plasma, intravenous 5 mg/kg, 8 h): bleow the limit of quantitation
- plasma concentration 6 h after oral administration ([2]; rat plasma, oral 25 mg/kg, 6 h): bleow the limit of quantitation
- CL/F ([2]; rat, intravenous 5 mg/kg): 5.14 ± 1.58 L/h/kg
- V/F ([2]; rat, intravenous 5 mg/kg): 22.83 ± 11.67 L/kg
- V/F ([2]; rat, oral 25 mg/kg): 318.99 ± 157.43 L/kg
- stability in plasma samples and homogenates ([3]; 25°C for 6 h, 4°C for 24 h, three freeze-thaw cycles (−20°C to 25°C), −80°C for 14 days): stable
- Post-processing stability Accuracy ([3]; rat intestine homogenate, 4.22 ng/mL, 4°C for 24 h): 98.23%
- Short-term stability Accuracy ([3]; rat intestine homogenate, 4.22 ng/mL, 25°C for 6 h): 95.41%
- −80°C for 14 days Accuracy [3, 9]: 93.31%
- Freeze-thaw stability Accuracy [3, 9]: 95.83%
- Post-processing stability Accuracy ([3]; rat intestine homogenate, 21.12 ng/mL, 4°C for 24 h): 98.14%
- Short-term stability Accuracy ([3]; rat intestine homogenate, 21.12 ng/mL, 25°C for 6 h): 96.69%
- −80°C for 14 days Accuracy [3, 10]: 92.54%
- Freeze-thaw stability Accuracy [3, 10]: 94.42%
- Short-term stability Accuracy ([3]; rat intestine homogenate, 105.60 ng/mL, 25°C for 6 h): 94.97%
- −80°C for 14 days Accuracy ([3]; rat intestine homogenate, 105.60 ng/mL): 90.35%
- Post-processing stability Accuracy ([3]; rat kidney homogenate, 21.12 ng/mL, 4°C for 24 h): 101.18%
- Short-term stability Accuracy ([3]; rat kidney homogenate, 21.12 ng/mL, 25°C for 6 h): 103.01%
- −80°C for 14 days Accuracy [3, 11]: 95.23%
- Freeze-thaw stability Accuracy [3, 11]: 95.07%
- Post-processing stability Accuracy ([3]; rat kidney homogenate, 211.20 ng/mL, 4°C for 24 h): 98.13%
- Short-term stability Accuracy ([3]; rat kidney homogenate, 211.20 ng/mL, 25°C for 6 h): 97.29%
- −80°C for 14 days Accuracy [3, 12]: 92.7%
- Freeze-thaw stability Accuracy [3, 12]: 95.58%
- Post-processing stability Accuracy ([3]; rat kidney homogenate, 1,056.00 ng/mL, 4°C for 24 h): 95.47%
- Short-term stability Accuracy ([3]; rat kidney homogenate, 1,056.00 ng/mL, 25°C for 6 h): 97.04%
- −80°C for 14 days Accuracy [3, 13]: 91.34%
- Freeze-thaw stability Accuracy [3, 13]: 93.72%
- Post-processing stability Accuracy ([3]; rat liver homogenate, 21.12 ng/mL, 4°C for 24 h): 104.23%
- Short-term stability Accuracy ([3]; rat liver homogenate, 21.12 ng/mL, 25°C for 6 h): 101.44%
- −80°C for 14 days Accuracy [3, 14]: 96.4%
- Freeze-thaw stability Accuracy [3, 14]: 97.72%
- Post-processing stability Accuracy ([3]; rat liver homogenate, 211.20 ng/mL, 4°C for 24 h): 105.35%
- Short-term stability Accuracy ([3]; rat liver homogenate, 211.20 ng/mL, 25°C for 6 h): 105.89%
- −80°C for 14 days Accuracy [3, 15]: 94.88%
- Freeze-thaw stability Accuracy [3, 15]: 96.69%
- Post-processing stability Accuracy ([3]; rat liver homogenate, 2,112.00 ng/mL, 4°C for 24 h): 97.47%
- Short-term stability Accuracy ([3]; rat liver homogenate, 2,112.00 ng/mL, 25°C for 6 h): 98.17%
- −80°C for 14 days Accuracy [3, 16]: 93.33%
- Freeze-thaw stability Accuracy [3, 16]: 92.38%
- Post-processing stability Accuracy ([3]; rat plasma, 4.22 ng/mL, 4°C for 24 h): 107.16%
- Short-term stability Accuracy ([3]; rat plasma, 4.22 ng/mL, 25°C for 6 h): 108.92%
- −80°C for 14 days Accuracy ([3]; rat plasma, 4.22 ng/mL): 103.66%
- Freeze-thaw stability Accuracy ([3]; rat plasma, 4.22 ng/mL): 101.64%
- Post-processing stability Accuracy ([3]; rat plasma, 105.60 ng/mL, 4°C for 24 h): 94.98%
- Short-term stability Accuracy ([3]; rat plasma, 105.60 ng/mL, 25°C for 6 h): 95.35%
- −80°C for 14 days Accuracy ([3]; rat plasma, 105.60 ng/mL): 90.18%
- Freeze-thaw stability Accuracy ([3]; rat plasma, 105.60 ng/mL): 92.05%
- Post-processing stability Accuracy ([3]; rat plasma, 1,056.00 ng/mL, 4°C for 24 h): 92.05%
- Short-term stability Accuracy ([3]; rat plasma, 1,056.00 ng/mL, 25°C for 6 h): 92.49%
- −80°C for 14 days Accuracy ([3]; rat plasma, 1,056.00 ng/mL): 90.23%
- Freeze-thaw stability Accuracy ([3]; rat plasma, 1,056.00 ng/mL): 90.04%
- excretion through the kidney as prototype drug (urine) ([5]; 6 h): 10.43% ± 2.89%
- excretion through the kidney as prototype drug (urine), range ([5]; 6 h): 6.53%–13.54%
- excretion through the kidney as prototype drug (urine) ([5]; 24 h, 5 mg/kg): 22.59% ± 3.22%
- excretion through the kidney as prototype drug (urine), range ([5]; 24 h): 17.60%–25.92%
- MRTX1133 in feces ([5]; feces 24 h): no MRTX1133 was found
Compound: C#Cc1c(F)ccc2cc(O)cc(-c3ncc4c(N5CC6CCC(C5)N6)nc(OC[C@@]56CCCN5C[C@H](F)C6)nc4c3F)c12 [MRTX1133]
- antitumor effect in vivo [1]: induces tumor regression
- plasma concentration ([4]; 4 h): ~1,000 ng mL^-1
- plasma concentration ([4]; 8 h): ~100 ng/mL
- plasma concentration ([4]; 24 h): approximately 50 ng mL^-1
- Cmax ([4]; at 1 h): approximately 7,000 ng mL^-1
- potency [6]: single digit nanomolar
- selectivity for KRAS (G12D) compared with wild-type KRAS [6]: more than 1000 fold
